For 20 compounds, IC50 results are on record in US11919902B2, “Aryl-bipyridine amine derivatives as phosphatidylinositol phosphate kinase inhibitors” (HiberCell, Inc., priority 2017, dated 2024).

The target of one test is T1, GST tagged PIP4KtypeIIA (Homo sapiens, UniProt P48426).
T1 construct: made in house; host or cells: E. coli
T1 sequence (P48426 1-406): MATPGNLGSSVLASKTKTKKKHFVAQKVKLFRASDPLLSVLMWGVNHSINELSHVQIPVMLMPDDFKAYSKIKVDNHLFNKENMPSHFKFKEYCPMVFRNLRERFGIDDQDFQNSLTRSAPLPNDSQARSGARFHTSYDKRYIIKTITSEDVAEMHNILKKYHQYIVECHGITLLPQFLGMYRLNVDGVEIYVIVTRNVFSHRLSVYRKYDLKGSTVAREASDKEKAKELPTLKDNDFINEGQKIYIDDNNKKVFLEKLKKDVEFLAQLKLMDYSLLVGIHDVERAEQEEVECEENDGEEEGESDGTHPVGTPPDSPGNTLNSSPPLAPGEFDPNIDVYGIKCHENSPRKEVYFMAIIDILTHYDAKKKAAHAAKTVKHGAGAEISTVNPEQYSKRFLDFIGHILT
Description: ADP-glo kinase assay PIP4K 2A (PIP4KtypeIIA inhibition assay). The class given is biochemical. Particulars: Table 3; compounds listed under IC50 range headings; 10 uM ATP, 0.5 nM PIP4KIIA. In short, it runs like this: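 E. coli-expressed GST-PIP4KtypeIIA (0.5 nM final) was preincubated 1 h at 27 °C with compound (up to 4.8 μM, 5% DMSO) in PI5P/DOPE lipid in 50 mM HEPES pH 7.3 with 10 mM MgCl2. The reaction was started with 10 μM ATP (final) and run 1 h. ADP was read by ADP-Glo luminescence via a calibration curve, and IC50 was taken from % residual activity.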
On the technique in general: ADP-Glo first removes unused ATP, then detects ADP through luciferase.

The target in the next test is T2, GST tagged PIP4KtypeIIB (Homo sapiens, UniProt P78356).
T2 construct: made in house; host or cells: E. coli
T2 sequence (P78356 1-416): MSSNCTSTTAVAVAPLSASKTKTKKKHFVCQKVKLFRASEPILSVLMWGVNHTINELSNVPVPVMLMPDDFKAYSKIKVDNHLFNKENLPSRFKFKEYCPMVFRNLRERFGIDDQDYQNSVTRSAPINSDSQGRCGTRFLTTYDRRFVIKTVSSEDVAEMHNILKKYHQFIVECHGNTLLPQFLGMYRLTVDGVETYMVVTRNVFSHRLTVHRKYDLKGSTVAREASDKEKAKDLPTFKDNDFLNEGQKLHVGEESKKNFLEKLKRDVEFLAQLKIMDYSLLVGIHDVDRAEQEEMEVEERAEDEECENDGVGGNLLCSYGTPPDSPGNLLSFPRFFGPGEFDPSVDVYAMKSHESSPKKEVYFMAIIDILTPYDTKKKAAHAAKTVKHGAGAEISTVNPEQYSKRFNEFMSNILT
Put plainly: Trans-FI P kinase assay PIP4K2B (PIP4KtypeIIB inhibition assay). The class given is biochemical. The note with it: Table 4; compounds listed under IC50 range headings; 100 uM GTP, 5 nM PIP4KIIB; read-out: Trans-FI P kinase assays: PIP4K2B IC50. The gist of the method:
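Purified GST-PIP4KIIB (5 nM final), 1 h preincubation with compound at 27 C, then 2 h reaction with 100 uM GTP and 80 uM PI5P plus DOPE carrier lipid in pH 7.3 HEPES/MgCl2/Triton buffer with 5% DMSO. GDP read by Transcreener FI fluorescence against a calibration curve; IC50 from % no-inhibitor activity vs log concentration.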

As a reminder, the IC50 is the concentration at which inhibition is half-maximal. Regarding `O=C(NCCc1ccncc1)c1cc2c(-c3cncc(-c4ccc(N5CCCC5=O)cc4)c3)ccnc2[nH]1` [Example 247, 4-(5-(4-(2-oxopyrrolidin-1-yl)phenyl)pyridin-3-yl)-N-(2-(pyridin-4-yl)ethyl)-1H-pyrrolo[2,3-b]pyridine-2-carboxamide], the half-inhibitory concentration (IC50) against GST tagged PIP4KtypeIIA was 0.1 to 1 µM; at GST tagged PIP4KtypeIIB it was 0.01 to 0.1 µM.

On to `COC(=O)c1cc2c(-c3cncc(-c4ccc(N5CCCC5=O)cn4)c3)ccnc2[nH]1` [Example 248, methyl 4-(5-(2-oxopyrrolidin-1-yl)-[2,3′-bipyridin]-5′-yl)-1H-pyrrolo[2,3-b]pyridine-2-carboxylate], for which the concentration for half-maximal inhibition (IC50) on GST tagged PIP4KtypeIIA fell in the range of 1 to 2.5 µM; on GST tagged PIP4KtypeIIB it was 0.1 to 1 µM.

`O=C(NCCc1nn[nH]n1)c1cc2c(-c3cncc(-c4ccc(N5CCCC5=O)cc4)c3)ccnc2[nH]1` [Example 251, N-(2-(2H-tetrazol-5-yl)ethyl)-4-(5-(4-(2-oxopyrrolidin-1-yl)phenyl)pyridin-3-yl)-1H-pyrrolo[2,3-b]pyridine-2-carboxamide]: the results for the IC50 against GST tagged PIP4KtypeIIA and on GST tagged PIP4KtypeIIB were 0.1 to 1 µM and 0.01 to 0.1 µM, respectively.

Regarding `CN(C)C(=O)c1cnc2[nH]c(C3CC3)c(-c3cncc(-c4ccc(N5CCCC5=O)cc4)c3)c2c1` [Example 252, 2-cyclopropyl-N,N-dimethyl-3-(5-(4-(2-oxopyrrolidin-1-yl)phenyl)pyridin-3-yl)-1H-pyrrolo[2,3-b]pyridine-5-carboxamide], the concentration for half-maximal inhibition (IC50) against GST tagged PIP4KtypeIIA and at GST tagged PIP4KtypeIIB was 0.01 to 0.1 µM each time.

`O=C1CCCN1c1ccc(-c2cncc(-n3ccc4ncccc43)c2)cc1` [Example 253, 1-(4-(5-(1H-pyrrolo[3,2-b]pyridin-1-yl)pyridin-3-yl)phenyl)pyrrolidin-2-one]: the half-maximal inhibitory concentration (IC50) at GST tagged PIP4KtypeIIA and at GST tagged PIP4KtypeIIB was 0.1 to 1 µM in each case.

For the compound `CN(C)C(=O)c1cnc2ccn(-c3cncc(-c4ccc(N5CCCC5=O)cc4)c3)c2c1` [Example 254, N,N-dimethyl-1-(5-(4-(2-oxopyrrolidin-1-yl)phenyl)pyridin-3-yl)-1H-pyrrolo[3,2-b]pyridine-6-carboxamide], the IC50 against GST tagged PIP4KtypeIIA and at GST tagged PIP4KtypeIIB was 0.1 to 1 µM in each case.

In the case of `O=C(NCCc1cnccn1)c1cc2c(-c3cncc(-c4ccc(N5CCCC5=O)cc4)c3)ccnc2[nH]1` [Example 255, 4-(5-(4-(2-oxopyrrolidin-1-yl)phenyl)pyridin-3-yl)-N-(2-(pyrazin-2-yl)ethyl)-1H-pyrrolo[2,3-b]pyridine-2-carboxamide], the half-maximal inhibitory concentration (IC50) on GST tagged PIP4KtypeIIA was 0.1 to 1 µM; at GST tagged PIP4KtypeIIB, 0.01 to 0.1 µM.

Take `O=C(NCCc1nccs1)c1cc2c(-c3cncc(-c4ccc(N5CCCC5=O)cc4)c3)ccnc2[nH]1` [Example 256, 4-(5-(4-(2-oxopyrrolidin-1-yl)phenyl)pyridin-3-yl)-N-(2-(thiazol-2-yl)ethyl)-1H-pyrrolo[2,3-b]pyridine-2-carboxamide]: the results for the half-inhibitory concentration (IC50) at GST tagged PIP4KtypeIIA and on GST tagged PIP4KtypeIIB were 0.1 to 1 µM and 0.01 to 0.1 µM, respectively.

`CN(C)C(=O)c1cc2c(-c3cncc(-c4ccc(N5CCCC5=O)cc4)c3)cn(C)c2c(=O)n1C` [Example 260, N,N,1,6-tetramethyl-7-oxo-3-(5-(4-(2-oxopyrrolidin-1-yl)phenyl)pyridin-3-yl)-6,7-dihydro-1H-pyrrolo[2,3-c]pyridine-5-carboxamide]: the IC50 against GST tagged PIP4KtypeIIA and on GST tagged PIP4KtypeIIB was 0.1 to 1 µM in each case.

Consider `O=C(NCCc1ccc[nH]1)c1cc2c(-c3cncc(-c4ccc(N5CCCC5=O)cc4)c3)ccnc2[nH]1` [Example 261, N-(2-(1H-pyrrol-2-yl)ethyl)-4-(5-(4-(2-oxopyrrolidin-1-yl)phenyl)pyridin-3-yl)-1H-pyrrolo[2,3-b]pyridine-2-carboxamide], for which the 50% inhibitory concentration (IC50) against GST tagged PIP4KtypeIIA was in the range of 0.1 to 1 µM; on GST tagged PIP4KtypeIIB it was 0.01 to 0.1 µM.

On to `CN(C)C(=O)c1cnc2c(c1)c(-c1cncc(-c3ccc(N4CCCC4=O)cc3)c1)c(C1CC1)n2C` [Example 262, 2-cyclopropyl-N,N,1-trimethyl-3-(5-(4-(2-oxopyrrolidin-1-yl)phenyl)pyridin-3-yl)-1H-pyrrolo[2,3-b]pyridine-5-carboxamide], for which the figures for the 50% inhibitory concentration (IC50) against GST tagged PIP4KtypeIIA and on GST tagged PIP4KtypeIIB were 2.5 to 5 µM and 0.1 to 1 µM, respectively.

Regarding `Cn1c(C(N)=O)cc2c(-c3cncc(-c4ccc(N5CCCC5=O)cc4)c3)cn(C)c2c1=O` [Example 263, 1,6-dimethyl-7-oxo-3-(5-(4-(2-oxopyrrolidin-1-yl)phenyl)pyridin-3-yl)-6,7-dihydro-1H-pyrrolo[2,3-c]pyridine-5-carboxamide], the IC50 on GST tagged PIP4KtypeIIA and on GST tagged PIP4KtypeIIB was 1 to 2.5 µM throughout.

Take `O=C(NC1CC1c1ccccc1)c1cc2c(-c3cncc(-c4ccc(N5CCCC5=O)cc4)c3)ccnc2[nH]1` (stereo not shown) [Example 264, 4-(5-(4-(2-oxopyrrolidin-1-yl)phenyl)pyridin-3-yl)-N-(2-phenylcyclopropyl)-1H-pyrrolo[2,3-b]pyridine-2-carboxamide]: the concentration for half-maximal inhibition (IC50) against GST tagged PIP4KtypeIIA lay within 0.1 to 1 µM; at GST tagged PIP4KtypeIIB it was 0.01 to 0.1 µM.

For the compound `CC(C)c1c(-c2cncc(-c3ccc(N4CCCC4=O)cc3)c2)c2cc(C(=O)N(C)C)cnc2n1C` [Example 266, 2-isopropyl-N,N,1-trimethyl-3-(5-(4-(2-oxopyrrolidin-1-yl)phenyl)pyridin-3-yl)-1H-pyrrolo[2,3-b]pyridine-5-carboxamide], the concentration for half-maximal inhibition (IC50) lay within 2.5 to 5 µM at GST tagged PIP4KtypeIIA and 1 to 2.5 µM at GST tagged PIP4KtypeIIB.

As for `CC(C)c1[nH]c2ncc(C(=O)N(C)C)cc2c1-c1cncc(-c2ccc(N3CCCC3=O)cc2)c1` [Example 269, 2-isopropyl-N,N-dimethyl-3-(5-(4-(2-oxopyrrolidin-1-yl)phenyl)pyridin-3-yl)-1H-pyrrolo[2,3-b]pyridine-5-carboxamide], the IC50 against GST tagged PIP4KtypeIIA and on GST tagged PIP4KtypeIIB was 0.1 to 1 µM throughout.

With `CC(C)c1cc(=O)n2ncc(-c3cncc(-c4ccc(N5CCCC5=O)cc4)c3)c2[nH]1` [Example 281, 5-isopropyl-3-(5-(4-(2-oxopyrrolidin-1-yl)phenyl)pyridin-3-yl)pyrazolo[1,5-a]pyrimidin-7(4H)-one], the IC50 on GST tagged PIP4KtypeIIA and on GST tagged PIP4KtypeIIB was 1 to 2.5 µM throughout.

Turning to `CN(C)C(=O)c1cnc2occ(-c3cncc(-c4ccc(N5CCCC5=O)cc4)c3)c2c1` [Example 282, N,N-dimethyl-3-(5-(4-(2-oxopyrrolidin-1-yl)phenyl)pyridin-3-yl)furo[2,3-b]pyridine-5-carboxamide], the IC50 was in the range of 0.01 to 0.1 µM against GST tagged PIP4KtypeIIA and 0.1 to 1 µM at GST tagged PIP4KtypeIIB.

As for `O=C1CCCN1c1ccc(-c2cncc(-c3n[nH]c4ncc(C5CC5)cc34)c2)cc1` [Example 283, 1-(4-(5-(5-cyclopropyl-1H-pyrazolo[3,4-b]pyridin-3-yl)pyridin-3-yl)phenyl)pyrrolidin-2-one], the concentration for half-maximal inhibition (IC50) against GST tagged PIP4KtypeIIA and on GST tagged PIP4KtypeIIB was 0.01 to 0.1 µM throughout.

For the compound `Cc1nn2c(=O)c(CCO)c(C)[nH]c2c1-c1cncc(-c2ccc(N3CCCC3=O)cc2)c1` [Example 284, 6-(2-hydroxyethyl)-2,5-dimethyl-3-(5-(4-(2-oxopyrrolidin-1-yl)phenyl)pyridin-3-yl)pyrazolo[1,5-a]pyrimidin-7(4H)-one], the IC50 against GST tagged PIP4KtypeIIA and at GST tagged PIP4KtypeIIB was 0.1 to 1 µM throughout.

Consider `COCc1cc(-c2cncc(-c3ccc(N4CCCC4=O)cc3)c2)n2nc(C)cc2n1` [Example 285, 1-(4-(5-(5-(methoxymethyl)-2-methylpyrazolo[1,5-a]pyrimidin-7-yl)pyridin-3-yl)phenyl)pyrrolidin-2-one], for which the IC50 against GST tagged PIP4KtypeIIA and on GST tagged PIP4KtypeIIB was 2.5 to 5 µM in each case.
